Results from patent publication US9296755B2, “3,4-dihydro-1H-pyrimido[1,6-a]pyrimidin-6(2H)-one compounds and their therapeutic applications” (GlaxoSmithKline Intellectual Property Development Limited, priority 2013, dated 2016).

Key:
rat EAE model = assay: Rat experimental autoimmune encephalomyelitis (EAE) model, preventive treatment; assay type: in vivo; settings: MBP immunization, administered day 0 to day 22
Protocol: (§1) A further study was carried out to study the impact of Lp-PLA2 inhibitors on modulating M1/M2 imbalance. In this study, rats were induced to develop experimental autoimmune encephalomyelitis (EAE) by immunization with myelin basic protein (MBP) antigen and treated with a known Lp-PLA2 inhibitor: 5-((9-Methoxy-4-oxo-6,7-dihydro-4H-pyrimido[6,1-a]isoquinolin-2-yl)oxy)-2-(3-(trifluoromethyl)phenoxy)benzonitrile (See PCT application no. PCT/CN2011/001597). In this preventive treatment model, the compound was administered at day 0 (day of immunization) and continued to administer until day 22. The study lasted for 25 days. Rats were subsequently monitored for symptoms of EAE. Rats were immunized with MBP to develop EAE and symptoms were monitored daily. Plasma Lp-PLA2 activity, OxLDL, and LysoPC concentration were determined at different time points through the course of EAE.

Lp-PLA2 [1] = assay: Plasma Lp-PLA2 activity and LysoPC in rat EAE plasma; assay type: in vivo
Protocol: as §1

Lp-PLA2 [2] = molecular target: T1, Lp-PLA2 (Rattus norvegicus, UniProt A6JJ35); assay: as above; assay type: in vivo
T1 construct: from tissue; host or cells: plasma of EAE rats
T1 sequence (A6JJ35 22-440): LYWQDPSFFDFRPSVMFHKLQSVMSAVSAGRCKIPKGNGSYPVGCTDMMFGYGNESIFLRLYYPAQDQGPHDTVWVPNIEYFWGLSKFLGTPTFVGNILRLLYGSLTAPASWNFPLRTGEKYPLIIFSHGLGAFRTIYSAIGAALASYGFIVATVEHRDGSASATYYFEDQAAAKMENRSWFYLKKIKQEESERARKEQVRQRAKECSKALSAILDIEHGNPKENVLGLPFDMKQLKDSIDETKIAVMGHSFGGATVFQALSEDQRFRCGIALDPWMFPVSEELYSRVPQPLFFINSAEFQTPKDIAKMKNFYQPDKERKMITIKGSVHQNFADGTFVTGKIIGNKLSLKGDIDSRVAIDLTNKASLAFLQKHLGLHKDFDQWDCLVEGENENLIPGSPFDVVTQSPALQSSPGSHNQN
Protocol: as §1

[3] = test system: proinflammatory (M1) and anti-inflammatory (M2) markers; assay: Ex vivo analysis of M1 and M2 markers in macrophages of EAE rats by realtime PCR; parameters: species or system rat; settings: splenic macrophages day 13 post MBP-immunization and CNS infiltrating macrophages
Protocol: Ex vivo analysis of proinflammatory (M1) and anti-inflammatory (M2) markers in control and compound treated EAE rats. Splenic macrophages were harvested at day 13 post MBP-immunization and assayed for expression of a variety of markers by realtime PCR. CNS infiltrating cells were harvested and macrophages were analyzed for expression of M1 and M2 markers by realtime PCR.

[4] = molecular target: Recombinant human PLA2 VIIB (Homo sapiens, UniProt Q99487); assay: PLA2 VIIB assay; assay type: biochemical
Text: PLA2 VIIB (also known as Novel Serine Dependent Lipase, NSDL) is a serine hydrolase with 40% amino acid identity with human Lp-PLA2. Sequence comparisons indicate that the PLA VIIB active site catalytic triad positions are similar to those of Lp-PLA2. Similar to Lp-PLA2, it is capable of hydrolyzing oxidatively modified phospholipids and may be assayed using known Lp-PLA2 substrates.
Upon cleavage by a phopholipase, […] liberates a fluorescent Bodipy group. Recombinant human PLA2 VIIB is used as the phospholipase source in this assay, and compounds are screened to test their degree of inhibition in this assay. The assay is used to determine the degree of selectivity of the testing compounds between PLA2 VIIB and Lp-PLA2.
The PLA2 VIIB assay was applied as an unquenched 10 μL assay. The source plate containing the compounds is prepared by making 1:3 (by volume) serial dilution of the compounds with pure DMSO on 384-well microplate. 0.01 μL of compounds on the compound source plate were transferred into 384 well Greiner 784076 (black) plates by ECHO liquid dispenser. 5 μL of Novel Serine Dependent Lipase (NSDL) enzyme (5 nM NSDL in assay buffer of 50 mM HEPES, pH 7.4, 150 mM NaCl, 1 mM CHAPS) was added to each well. […] Plates were kinetic read by starting read immediately after PED6 addition at ex: 480/em:540 using ViewLux microplate reader or Envision spectrofluorimeters. […]

| Structure (SMILES) | clinical disease (EAE) (rat EAE model) | LysoPC levels in rat EAE plasma (Lp-PLA2 [1]) | Lp-PLA2 activity in rat EAE plasma (Lp-PLA2 [2]) | M1 markers [3] | M2 markers [3] | selectivity between human recombinant Lp-PLA2 and PLA2 VIIB [4] [fold] |
| --- | --- | --- | --- | --- | --- | --- |
| COc1ccc2c(c1)CCn1c-2cc(Oc2ccc(Oc3cccc(C(F)(F)F)c3)c(C#N)c2)nc1=O [5-((9-Methoxy-4-oxo-6,7-dihydro-4H-pyrimido[6,1-a]isoquinolin-2-yl)oxy)-2-(3-(trifluoromethyl)phenoxy)benzonitrile] | reduction in clinical disease | decreased | decreased | decrease | increase |  |
| Cc1ccccc1CN1CCCn2c1cc(OCc1ccc(F)c(F)c1)nc2=O [Example E7, 8-((3,4-difluorobenzyl)oxy)-1-(2-methylbenzyl)-3,4-dihydro-1H-pyrimdo[1,6-a]pyrimidin-6(2H)-one] |  |  |  |  |  | ≤ 100 |
